Drawing on US8071768B2, “Alkylquinoline and alkylquinazoline kinase modulators” (Janssen Pharmaceutica, N.V., priority 2005, dated 2011), this text covers IC50 for 23 compounds.

One may read the IC50 as the concentration at which inhibition is half-maximal. A high value points to lower potency.

For this assay, the target named is T1, TrkB (Homo sapiens, UniProt Q16620).
T1 construct: purchased Upstate 14-507M
Briefly: Trk B Fluorescence Polarization Kinase Assay. The class given is biochemical. The note with it: uncertainty ±10%. As to the method:
Trk B Fluorescence Polarization Kinase Assay (TrkB IC50 Data)
The compounds of the present invention are also specific inhibitors of TrkB. Selection of preferred compounds of Formula I for use as TrkB inhibitors was performed in the following manner. The TrkB assay utilized the fluorescein-labeled phosphopeptide and the anti-phosphotyrosine antibody included in the Panvera Phospho-Tyrosine Kinase Kit (Green) supplied by Invitrogen. When TrkB phosphorylated poly Glu4Tyr, the fluorescein-labeled phosphopeptide was displaced from the anti-phosphotyrosine antibody by the phosphorylated poly Glu4Tyr, thus decreasing the FP value. The TrkB kinase reaction was incubated at room temperature for 30 minutes under the following conditions: 50 nM TrkB (Upstate, catalog # 14-507M), 20 ug/mL poly Glu4Tyr, 150 uM ATP, 5 mM MgCl2, 1% compound in DMSO. The kinase reaction was stopped with the addition of EDTA. The fluorescein-labeled phosphopeptide and the anti-phosphotyrosine antibody were added and incubated for 30 minutes at room temperature. Data points were an average of triplicate samples. Inhibition and IC50 data analysis were done with GraphPad Prism using a non-linear regression fit with a multiparamater, sigmoidal dose-response (variable slope) equation.
On the technique in general: Fluorescence polarisation rises when a labelled molecule tumbles more slowly, as on binding a larger partner.

T1 sequence (Q16620 32-822): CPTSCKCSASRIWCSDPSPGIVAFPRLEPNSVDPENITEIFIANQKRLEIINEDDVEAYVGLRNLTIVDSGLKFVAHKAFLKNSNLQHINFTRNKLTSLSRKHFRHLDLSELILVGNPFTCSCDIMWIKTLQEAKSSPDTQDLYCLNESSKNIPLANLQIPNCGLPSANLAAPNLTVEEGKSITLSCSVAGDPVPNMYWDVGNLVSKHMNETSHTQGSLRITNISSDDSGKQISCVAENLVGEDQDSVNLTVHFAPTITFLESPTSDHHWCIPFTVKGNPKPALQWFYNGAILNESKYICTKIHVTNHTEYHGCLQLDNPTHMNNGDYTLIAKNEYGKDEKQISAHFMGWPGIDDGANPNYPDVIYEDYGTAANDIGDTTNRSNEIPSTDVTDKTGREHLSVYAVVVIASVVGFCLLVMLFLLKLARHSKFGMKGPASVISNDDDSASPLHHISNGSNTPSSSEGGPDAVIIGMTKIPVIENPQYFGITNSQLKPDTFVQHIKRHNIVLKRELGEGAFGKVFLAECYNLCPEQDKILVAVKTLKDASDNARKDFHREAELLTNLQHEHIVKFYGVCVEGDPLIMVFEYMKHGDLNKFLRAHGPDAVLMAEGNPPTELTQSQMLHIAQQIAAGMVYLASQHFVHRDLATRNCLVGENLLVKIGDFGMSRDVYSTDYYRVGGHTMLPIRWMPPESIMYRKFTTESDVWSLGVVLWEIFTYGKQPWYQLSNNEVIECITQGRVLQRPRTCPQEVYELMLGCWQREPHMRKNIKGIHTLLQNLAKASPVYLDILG

On to `CC(=O)N1CC[C@@H](Oc2ccc3c(C4CCN(C(=O)Nc5ccc(N6CCCC6)cc5)CC4)ncnc3c2)C1` [Compound 154, (R)-4-[7-(1-Acetyl-pyrrolidin-3-yloxy)-quinazolin-4-yl]-piperidine-1-carboxylic acid (4-pyrrolidin-1-yl-phenyl)-amide], for which the IC50 is above 42 µM. The compound `O=C(Nc1ccc(N2CCCC2)cc1)N1CCC(c2ncnc3cc(OCCCN4CCC[C@H]4CO)ccc23)CC1` [Compound 161, (S)-4-{7-[3-(2-Hydroxymethyl-pyrrolidin-1-yl)-propoxy]-quinazolin-4-yl}-piperidine-1-carboxylic acid (4-pyrrolidin-1-yl-phenyl)-amide] yielded an IC50 of 6.48 µM. Compound `COc1cc2ncnc(C3CCN(C(=O)Nc4ccc(I)cc4)CC3)c2cc1OC` [Compound 2, 4-(6,7-Dimethoxy-quinazolin-4-yl)-piperidine-1-carboxylic acid (4-iodo-phenyl)-amide] had an IC50 of 6.2 µM. Take `CC(=O)N1CCN(CCOc2ccc3c(C4CCN(C(=O)Nc5ccc(N6CCOCC6)cc5)CC4)ncnc3c2)CC1` [Compound 97, 4-{7-[2-(4-Acetyl-piperazin-1-yl)-ethoxy]-quinazolin-4-yl}-piperidine-1-carboxylic acid (4-morpholin-4-yl-phenyl)-amide]: the IC50 is above 20 µM. The compound `CN1CCCN(c2ccc3c(C4CCN(C(=O)Nc5ccc(N6CCOCC6)cc5)CC4)ncnc3c2)CC1` [Compound 138, 4-[7-(4-Methyl-[1,4]diazepan-1-yl)-quinazolin-4-yl]-piperidine-1-carboxylic acid (4-morpholin-4-yl-phenyl)-amide] displayed an IC50 above 42 µM.

The compound `O=C(Nc1ccc(N2CCCC2)cc1)N1CCC(c2ncnc3cc(N4CC[C@H](O)C4)ccc23)CC1` [Compound 129, (S)-4-[7-(3-Hydroxy-pyrrolidin-1-yl)-quinazolin-4-yl]-piperidine-1-carboxylic acid (4-pyrrolidin-1-yl-phenyl)-amide] had an IC50 of 3.11 µM. The compound `O=C(Nc1ccc(N2CCOCC2)cc1)N1CCC(c2ncnc3cc(N4CCNCC4)ccc23)CC1` [Compound 140, 4-(7-piperazin-1-yl-quinazolin-4-yl)-piperidine-1-carboxylic acid (4-morpholin-4-yl-phenyl)-amide] came in with an IC50 above 42 µM. Regarding `COc1ccc2c(C3CCN(C(=O)Nc4ccc(C(C)C)cc4)CC3)ncnc2c1` [Compound 32, 4-(7-Methoxy-quinazolin-4-yl)-piperidine-1-carboxylic acid (4-isopropyl-phenyl)-amide], the concentration for half-maximal inhibition (IC50) was 0.5 µM.

`CN(C)CC(=O)N1CCN(c2ccc3c(C4CCN(C(=O)Nc5ccc(N6CCOCC6)cc5)CC4)ncnc3c2)CC1` [Compound 144, 4-{7-[4-(2-Dimethylamino-acetyl)-piperazin-1-yl]-quinazolin-4-yl}-piperidine-1-carboxylic acid (4-morpholin-4-yl-phenyl)-amide] came in with an IC50 of 14.2 µM. `CN1CCCN(CCCOc2ccc3c(C4CCN(C(=O)Nc5ccc(N6CCOCC6)cc5)CC4)ncnc3c2)CC1` [Compound 125, 4-{7-[3-(4-Methyl-[1,4]diazepan-1-yl)-propoxy]-quinazolin-4-yl}-piperidine-1-carboxylic acid (4-morpholin-4-yl-phenyl)-amide] registered an IC50 above 20 µM. Compound `COCCOc1ccc(NC(=O)N2CCC(c3ncnc4cc(OC)c(OC)cc34)CC2)cc1` [Compound 40, 4-(6,7-Dimethoxy-quinazolin-4-yl)-piperidine-1-carboxylic acid [4-(2-methoxy-ethoxy)-phenyl]-amide] returned an IC50 above 42 µM. Regarding `CN1CCN(CCCOc2ccc3c(C4CCN(C(=O)Nc5cnc(N6CCCC6)nc5)CC4)ncnc3c2)CC1` [Compound 105, 4-{7-[3-(4-Methyl-piperazin-1-yl)-propoxy]-quinazolin-4-yl}-piperidine-1-carboxylic acid (2-pyrrolidin-1-yl-pyrimidin-5-yl)-amide], inhibition was half-maximal at 0.2 µM (IC50). The compound `COc1cc2ncnc(C3CCN(CC(=O)Nc4ccc(OC(C)C)cc4)CC3)c2cc1OC` [Compound 10, 2-[4-(6,7-Dimethoxy-quinazolin-4-yl)-piperidin-1-yl]-N-(4-isopropoxy-phenyl)-acetamide] had an IC50 of 1 µM.

`COc1cc2ncnc(C3CCN(C(=O)Nc4ccc(OC(F)(F)F)cc4)CC3)c2cc1OC` [Compound 50, 4-(6,7-Dimethoxy-quinazolin-4-yl)-piperidine-1-carboxylic acid (4-trifluoromethoxy-phenyl)-amide] gave an IC50 of 0.5 µM. Then `COc1cc2ncnc(C3CCN(C(=O)Nc4ccc(OC(C)C)nc4)CC3)c2cc1OC` [Compound 56, 4-(6,7-Dimethoxy-quinazolin-4-yl)-piperidine-1-carboxylic acid (6-isopropoxy-pyridin-3-yl)-amide], with 0.4 µM; and `CN1CCN(CCCOc2ccc3c(C4CCN(C(=O)Nc5ccc(N6CCCC6)cc5)CC4)ncnc3c2)CC1` [Compound 158, 4-{7-[3-(4-Methyl-piperazin-1-yl)-propoxy]-quinazolin-4-yl}-piperidine-1-carboxylic acid (4-pyrrolidin-1-yl-phenyl)-amide], with 5 µM; and `CC(C)Oc1ccc(NC(=O)N2CCC(c3ncnc4cc(OCCCNS(C)(=O)=O)ccc34)CC2)cc1` [Compound 65, 4-[7-(3-Methanesulfonylamino-propoxy)-quinazolin-4-yl]-piperidine-1-carboxylic acid (4-isopropoxy-phenyl)-amide], with 0.5 µM. For `COc1cc2ncnc(C3CCN(C(=O)Nc4ccc(C5=CCN(C(=O)OC(C)(C)C)CC5)cc4)CC3)c2cc1OC` [Compound 61, 4-(4-{[4-(6,7-Dimethoxy-quinazolin-4-yl)-piperidine-1-carbonyl]-amino}-phenyl)-3,6-dihydro-2H-pyridine-1-carboxylic acid tert-butyl ester], 40.6 µM corresponded to half-maximal inhibition (IC50).

Compound `CC(C)Oc1ccc(NC(=O)N2CCC(c3ccnc4ccccc34)CC2)cc1` [Compound 6, 4-Quinolin-4-yl-piperidine-1-carboxylic acid (4-isopropoxy-phenyl)-amide] gave an IC50 of 0.8 µM. The compound `CC(C)Oc1ccc(NC(=O)N2CCC(c3ncnc4cc(OCCCN5CCCCC5)ccc34)CC2)cc1` [Compound 33, 4-(7-(3-Piperidin-1-yl-propoxy)-quinazolin-4-yl)-piperidine-1-carboxylic acid (4-isopropoxy-phenyl)-amide] came in with an IC50 of 0.9 µM. The compound `COc1cc2ncnc(C3CCN(C(=O)Nc4ccc(-c5cncnc5)cc4)CC3)c2cc1OC` [Compound 58, 4-(6,7-Dimethoxy-quinazolin-4-yl)-piperidine-1-carboxylic acid (4-pyrimidin-5-yl-phenyl)-amide] yielded an IC50 above 42 µM.

Regarding `O=C(Nc1ccc(N2CCOCC2)nc1)N1CCC(c2ncnc3cc(OCCCn4cnnc4)ccc23)CC1` [Compound 110, 4-[7-(3-[1,2,4]Triazol-4-yl-propoxy)-quinazolin-4-yl]-piperidine-1-carboxylic acid (6-morpholin-4-yl-pyridin-3-yl)-amide], the IC50 was 15 µM. In turn, `COc1cc2ncnc(C3CCN(C(=O)Nc4ccc(C5=CCNCC5)cc4)CC3)c2cc1OC` [Compound 62, 4-(6,7-Dimethoxy-quinazolin-4-yl)-piperidine-1-carboxylic acid [4-(1,2,3,6-tetrahydro-pyridin-4-yl)-phenyl]-amide] showed an IC50 above 10 µM.
